# Publication PMC12040169 (PLOS Biology, 2025)
# Test: in vitro
# Conditions: human, hela cells, % viability
row,Structure (SMILES),"viability at 28.5 h, 10 µM"
1,Cc1nn(-c2ccc(N3CCNCC3)nn2)c(=O)c2ccccc12 [CBK270067],88.1%
2,O=C(O)c1cccc(NS(=O)(=O)c2cccs2)c1 [CBK270068],59.5%
3,O=C(CSc1nnc(-c2ccncc2)s1)Nc1ccc(Cl)cc1 [CBK270069],87.9%
4,O=C(O)COc1cccc(NC(=O)c2cc3ccccc3o2)c1 [CBK270071],90.3%
5,CCOc1ccc(S(=O)(=O)N2CCC(C(=O)N3CCN(C)CC3)CC2)cc1 [CBK270075],88.8%
6,Cc1ccc(C(=O)Nc2ccccc2)cc1S(=O)(=O)N1CCN(C)CC1 [CBK270076],90.2%
7,O=C(Cn1c(=O)oc2ccccc21)Nc1ccc(N2CCOCC2)c(Cl)c1 [CBK270079],102%
8,Cn1nnnc1SCCNCc1ccc2c(c1)n(C)c(=O)n2C [CBK270080C],99.8%
9,COc1cc(-c2nc(C(C)=O)c(C)n2O)cc(OC)c1OC [CBK270083],95.6%
10,Cc1cccc(C)c1N1CCN(CC(O)COc2ccc3c(C)cc(=O)oc3c2)CC1 (stereo not shown) [CBK270084],91.2%
11,Cn1c(=O)[nH]c(=O)c2c1nc(CN1CCOCC1)n2Cc1c(F)cccc1Cl [CBK270085],90.5%
12,COc1ccccc1N1CCN(CC(=O)Nc2cc(Cl)ccc2C)CC1 [CBK270087],105%
13,N#Cc1ccccc1NC(=O)CN1CCCCCC1 [CBK270088],87.8%
14,O=C(CSc1nnnn1-c1cccnc1)NC1CCCCCC1 [CBK270092],83.9%
15,COc1cc(Br)c(-c2nnn[nH]2)cc1OC [CBK270093],108%
16,Cn1c(=O)n(C)c2cc(NC(=O)CN(c3ccccc3)S(C)(=O)=O)ccc21 [CBK270094],103%
17,Cc1nonc1NC(=O)CSc1nc2cc(Cl)ccc2[nH]1 [CBK270095],84.8%
18,Cc1cccc(C)c1OCC(=O)Nc1ccccc1C(=O)N1CCOCC1 [CBK270096],91.2%
19,CCc1cc(S(=O)(=O)NC2CC(C)(C)NC(C)(C)C2)ccc1OC [CBK270097],92%
20,CCc1ccc(OC)c(S(=O)(=O)NC2CC(C)(C)NC(C)(C)C2)c1 [CBK270098],101%
21,Nc1ccc(OCc2nc3ccccc3n2CC(=O)O)cc1 [CBK270099],96%
22,O=C(O)CCCn1cc(NC(=O)c2ccccc2Br)cn1 [CBK270100],82.9%
23,CCn1c(SCC(=O)Nc2ccc(C#N)cc2)nnc1-c1ccncc1 [CBK270102],96.4%
24,Cc1ccc(Cl)cc1NC(=O)CCn1cnc2ccccc2c1=O [CBK270103],95.1%

row,Structure (SMILES),"viability at 28.5 h, 10 µM"
1,Cn1ncc(N)c1C(=O)Nc1cccc(Cl)c1 [CBK270107],87.6%
2,CCOc1cc(S(=O)(=O)NCCCN2CCOCC2)ccc1Br [CBK270111],87.4%
3,OCc1nc2ccccc2n1CCCCOc1ccccc1Cl [CBK270117],106%
4,O=C(O)CCCn1cc(NC(=O)c2cccs2)cn1 [CBK270122],88.1%
5,CC(=O)NCc1nnc2c3ccccc3c(-c3ccccc3)nn12 [CBK270123],92.3%
6,Cc1cccc(Cn2nc(C)c(NC(=O)c3ccncc3)c2C)c1 [CBK270126],97.2%
7,O=C(CCn1cnnn1)Nc1cc(C(F)(F)F)ccc1Cl [CBK270127],91.4%
8,CCOC(=O)C1CCN(CCOc2ccc3ccccc3c2)CC1 [CBK270128C],95.4%
9,Cc1cc(CNC(=O)COc2ccc(C#N)cc2)c2ccccc2n1 [CBK270129],87.6%
10,COc1ccc(-c2ccc(=O)n(CCN)n2)cc1 [CBK270130C],97.2%
11,CN(C)S(=O)(=O)c1cccc(C(=O)NCc2ccco2)c1 [CBK270135],94.7%
12,Cc1ccc(NC(=O)CSc2cnn[nH]2)cc1 [CBK270136],86.2%
13,O=C(NCCCO)C1CCCN(S(=O)(=O)c2ccc3ccccc3c2)C1 (stereo not shown) [CBK270141],88.3%
14,CCC(Oc1ccccc1C)C(=O)Nc1ccccc1C(=O)N(C)C (stereo not shown) [CBK270144],88.4%
15,CCOc1ccc(N2C(=O)CC(N3CCN(CCc4ccccn4)CC3)C2=O)cc1 (stereo not shown) [CBK270149],95.8%
16,CNC(=O)c1ccc(OC)c(S(=O)(=O)NC)c1 [CBK270153],88.9%
17,O=C1CC(c2ccc(S(=O)(=O)NCc3ccccc3)cc2)CN1 (stereo not shown) [CBK270155],87.5%
18,Fc1ccc(-c2ccc(CNCc3ccncc3)o2)cc1 [CBK270158C],92.7%
19,CC1(C)Cc2cccc(OCC(=O)O)c2O1 [CBK270161],100%
20,Cc1ccc(-c2cc(O)n(-c3nc(C)cc(C)n3)n2)cc1 [CBK270165],97.1%
21,FC(F)(F)c1ccc(Oc2ccc(-c3noc(-c4cccnc4)n3)cc2)nc1 [CBK270166],90.3%
22,O=C(Nc1ccc2c(c1)oc1ccccc12)C1CCCO1 (stereo not shown) [CBK270168],81.9%
23,CCN1CCN(c2ccc(C(=O)OC)cc2NC(=O)c2ccc(C#N)cc2F)CC1 [CBK270171],101%
24,Cc1cc(-c2cccs2)c(C#N)c(SCc2cccnc2)n1 [CBK270172],81%

row,Structure (SMILES),"viability at 28.5 h, 10 µM"
1,COC(=O)COc1ccc2cccc(-n3cnnn3)c2c1 [CBK270173],84.7%
2,O=C(NCc1ccccn1)C1CC(=O)N(c2ccccc2)C1 (stereo not shown) [CBK270175],88.7%
3,O=C1CC(C(=O)Nc2ccc3c(c2)OCO3)n2c(nc3ccccc32)N1 (stereo not shown) [CBK270177],93.6%
4,CNS(=O)(=O)c1cc(C(=O)NCc2ccco2)ccc1OC [CBK270180],103%
5,O=C(CN1CCN(c2ncccn2)CC1)N1N=CCC1c1ccccc1 (stereo not shown) [CBK270184],89.4%
6,CCOC(=O)c1cnc2nc3ccccc3n2c1C [CBK270185],95.4%
7,O=C(COc1nc2ccccc2s1)N1N=CCC1c1ccccc1 (stereo not shown) [CBK270188],92.7%
8,CNc1sc(C(=O)c2ccc(OC)c(OC)c2)c(N)c1C#N [CBK270194],86.1%
9,Cc1cc(C)c(S(=O)(=O)NC(C)C)c(C)c1-n1cnnn1 [CBK270197],96.5%
10,Cc1nn2c(C)c(C(=O)Nc3ccccc3)nnc2c1-c1ccccc1 [CBK270198],85.6%
11,COc1ccc(C(=O)N2CCN(c3ccc(NC(=O)c4cccnc4)cc3)CC2)cc1 [CBK270200],85.5%
12,COc1ccc(-c2cc(C(F)(F)F)c3c(n2)sc2c(=O)cc(O)[nH]c23)cc1OC [CBK270201],84.6%
13,O=C(CC1SCCNC1=O)NCc1ccccc1 (stereo not shown) [CBK270202],99.1%
14,COCC(C)NS(=O)(=O)c1cc(Cl)ccc1OC (stereo not shown) [CBK270203],90.7%
15,COc1ccc(C)cc1NC(=O)CSc1nc(C)cc(C(F)(F)F)n1 [CBK270205],96%
16,Cc1ccc2c(c1)N(CC(N)=O)C(=O)CO2 [CBK270208],92.9%
17,Cc1cccc(-c2noc(CNC(=O)CSc3ccccc3)n2)c1 [CBK270209],98.3%
18,Cn1c(=O)n(C)c2cc(NC3=NS(=O)(=O)c4ccccc43)ccc21 [CBK270210],91.9%
19,O=C(O)c1ccccc1CSc1ccccn1 [CBK270213],98%
20,Cc1ccc(NC(=O)CC2Nc3ccccc3OC2=O)cc1C (stereo not shown) [CBK270214],81.5%
21,Cc1nc2ccccc2nc1SCc1nc(N)nc(N2CCCCC2)n1 [CBK270218],92.2%
22,CCC(=O)NCc1ccc(-c2nc3ncccc3o2)cc1 [CBK270220],108%
23,Cc1nc2ccc(NC(=O)c3cccc(C(F)(F)F)c3)cc2nc1C [CBK270221],88.2%
24,COC(=O)c1ccc(N2CCOCC2)c(NC(=O)COc2ccccc2)c1 [CBK270222],84.6%

row,Structure (SMILES),"viability at 28.5 h, 10 µM"
1,O=C(Nc1cccc(-c2noc(CCc3ccccc3)n2)c1)c1cccs1 [CBK270225],87.4%
2,Cc1cc(C)nc(-n2ncc(C#N)c2N)n1 [CBK270227],87%
3,CCN(Cc1nc(-c2ccccc2)no1)C(=O)c1ccoc1C [CBK270229],89.3%
4,Nc1nc(CN2CCN(c3ccccc3F)CC2)nc(N2CCCc3ccccc32)n1 [CBK270234],87.4%
5,Cc1nnc(SCC(=O)NC2CC3CCC2C3)[nH]1 (stereo not shown) [CBK270239],88.1%
6,CC(C)(C)c1ccc(-c2cc(C3CCNCC3)n[nH]2)cc1 [CBK270240],94%
7,COCC(C)NC(=O)C1CCCN(S(=O)(=O)c2ccc(OC)c(C)c2)C1 (stereo not shown) [CBK270242],86%
8,O=C(Nc1cccc(-c2noc(Cc3ccccc3)n2)c1)c1cccs1 [CBK270244],101%
9,COc1ccc(C(=O)Nc2ccc(N3CCN(C(=O)C(C)(C)C)CC3)cc2)cc1OC [CBK270245],90.6%
10,O=C(CSc1nncc(=O)[nH]1)NCc1ccccc1 [CBK270246],85.3%
11,COC(=O)CSc1nnc(-c2cc(Cl)ccc2OC)[nH]1 [CBK270248],97%
12,CCOc1ccc(S(=O)(=O)NCCOC)cc1Cl [CBK270251],91.5%
13,COc1cc(CNCc2ccc(F)cc2)cc(Cl)c1OCC(N)=O [CBK270256C],89%
14,CCOc1cccc2cc(C(=O)N3CCN(Cc4ccccc4)CC3)c(=O)oc12 [CBK270259C],74.3%
15,Fc1cccc(-c2nc(-c3cccnc3)no2)c1 [CBK270260],92.6%
16,CCOC(=O)CSc1nc(-c2ccc3c(c2)OCO3)ccc1C#N [CBK270262],87.6%
17,COc1ccc(-c2noc(CN(C(C)=O)C3CCCCC3)n2)cc1 [CBK270264],111%
18,Cc1ccc2c(N)c(C(=O)c3ccc4c(c3)OCCO4)sc2n1 [CBK270265],84.2%
19,CCCc1cc(O)n(-c2nc3ccccc3[nH]2)n1 [CBK270269],82.7%
20,CC(C(=O)N1CCOCC1)N(c1cc(Cl)ccc1Cl)S(C)(=O)=O (stereo not shown) [CBK270270],88.8%
21,COc1cccc(CNCc2ccco2)c1OCc1ccccc1F [CBK270271C],92.6%
22,O=C(Nc1ccccc1C(=O)N1CCOCC1)C1CCN(C(=O)c2ccco2)CC1 [CBK270272],105%
